Source: patent publication US4288609A, “Quaternary ammonium derivatives of adamantane with antimicrobic activity” (priority 1976, dated 1981)
Where two headings read alike, the source gives them in different places.

Experiments:
Staph.Aureus Tour = experiment: M.I.C. in vitro, gram+ Staph. Aureus (Table 1); type: cell-based, Staphylococcus Aureus; settings: Staphylococcus aureus, read-out: M.I.C.
Experimental: (§1) The method for evaluating the activity in vitro against bacteria, fungi and protozoa consists in introducing calculated quantities of the substance, the activity of which it is desired to test, into culture media already inoculated with a predetermined number of test germs.
(§2) After 24 or 48 hours of incubation at 30° or 37° C., according to the micro-organism being tested, it is possible to evaluate the growth of the same in the culture broth; in this manner the minimum concentration (M.I.C.) which inhibits the growth of the micro-organisms in vitro is determined.
(§3) In table 1 there are recorded the M.I.C. values in γ/ml of the products subject of the present invention, against certain gram+ and gram- bacterial strains, some of which are pathogenic towards human beings.

Diplococcus Pneum. ISM = experiment: M.I.C. in vitro, gram+ Diplococcus Pneum. (Table 1); type: cell-based; settings: read-out: M.I.C.
Experimental: as §1, §2, §3

[1] = system: Streptococ. Henclyt. 0203; experiment: M.I.C. in vitro, gram+ Streptococ. Henclyt. (Table 1); type: cell-based; settings: read-out: M.I.C.
Experimental: as §1, §2, §3

Esch. Coli. SKF 12140 = experiment: M.I.C. in vitro, gram- Esch. Coli (Table 1); type: cell-based, Escherichia Coli; settings: Escherichia coli, read-out: M.I.C.
Experimental: as §1, §2, §3

Klens. Pneum. ISM = experiment: M.I.C. in vitro, gram- Klens. Pneum. (Table 1); type: cell-based; settings: read-out: M.I.C.
Experimental: as §1, §2, §3

Proteus Vulc. ATCC 881 = experiment: M.I.C. in vitro, gram- Proteus Vulc. (Table 1); type: cell-based; settings: read-out: M.I.C.
Experimental: as §1, §2, §3

Pseudom.Aer. ATCC 1014 = experiment: M.I.C. in vitro, gram- Pseudom. Aer. (Table 1); type: cell-based, Pseudomonas Aeruginosa; settings: Pseudomonas aeruginosa, read-out: M.I.C.
Experimental: as §1, §2, §3

[2] = system: Trych. Mentagr. 1st.Pastuer; experiment: MIC mildews, Trichophyton mentagrophytes (Table 2); type: cell-based; settings: Trichophyton mentagrophytes, Sabourand broth, read-out: MIC
Experimental: as §1, §2
(§4) Inoculation with Trichophyton mentagrophytes and Microsporum canis was effected in a ratio of 1% of the volume of medium used.
(§5) For the fungi Sabourand broth was used as a culture medium, whilst for the protozoa Kupferberg Trichomonas broth with 5% of horse serum was used.

[3] = system: Nicrosporum Canis ATCC 11621; experiment: MIC mildews, Microsporum canis (Table 2); type: cell-based; settings: Microsporum canis, Sabourand broth, read-out: MIC
Experimental: as §1, §2, §4, §5

Candida Albic. SKF 2270 = experiment: MIC yeasts, Candida albicans (Table 2); type: cell-based; settings: Candida, Sabourand broth, read-out: MIC
Experimental: as §1, §2
(§6) Inoculation with Candida albicans or Candida pseudotropicalis was made by diluting cultures grown for 24 h at 30° C. (cellular density inoculated 10^3 /ml).
as §5

[4] = system: Candida Pseudotrop. ATCC 2512; experiment: MIC yeasts, Candida pseudotropicalis (Table 2); type: cell-based; settings: Candida, Sabourand broth, read-out: MIC
Experimental: as §1, §2, §6, §5

[5] = system: Trich. Vaginalis ISM 66/22; experiment: MIC protozoa, Trichomonas vaginalis (Table 2); type: cell-based; settings: Trichomonas vaginalis, +10% serum (head); Kupferberg Trichomonas broth with 5% of horse serum; read-out: MIC
Experimental: as §1, §2
(§7) Inoculation with Trichomonas vaginalis and Trichomonas foetus, obtained from cultures transplanted every other day to make them lively, was effected in a ratio of 3.5% of the volume of medium used.
as §5

Trich. Foetus ISM 66/23 = experiment: MIC protozoa, Trichomonas foetus (Table 2); type: cell-based; settings: Tritrichomonas foetus, +10% serum (head); Kupferberg Trichomonas broth with 5% of horse serum; read-out: MIC
Experimental: as §1, §2, §7, §5

[6] = Acute oral toxicity in mice (Table 4); settings: mouse, in vivo, po, LD50, oral, mice, 14 days
Experimental: The substances were administered orally to groups of 10 female mice CF1 of average weight of about 20 grams, in aqueous solution and in such way that the total volume administered would be in each case 1 ml/100 g of weight.

CCCCCCCCCCCC[N+](CC)(CC)CCNC(=O)C12CC3CC(CC(C3)C1)C2 [Example 12, n-Dodecyl-diethyl-(1-adamantane-carbonylamido)-ethylammonium bromide]
MIC (Staph.Aureus Tour; +10% serum): 10 µg/mL | MIC (Staph.Aureus Tour; without serum): 0.2 µg/mL | MIC (Diplococcus Pneum. ISM; +10% serum): 20 µg/mL | MIC (Diplococcus Pneum. ISM; without serum): 2 µg/mL | MIC ([1]; +10% serum): 5 µg/mL | MIC ([1]; without serum): 0.2 µg/mL | MIC (Esch. Coli. SKF 12140; +10% serum): 100 µg/mL | MIC (Esch. Coli. SKF 12140; without serum): 10 µg/mL | MIC (Klens. Pneum. ISM; +10% serum): 100 µg/mL | MIC (Klens. Pneum. ISM; without serum): 5 µg/mL | MIC (Proteus Vulc. ATCC 881; +10% serum): 100 µg/mL | MIC (Proteus Vulc. ATCC 881; without serum): 5 µg/mL | MIC (Pseudom.Aer. ATCC 1014; ATCC1014, +10% serum): 100 µg/mL | MIC (Pseudom.Aer. ATCC 1014; ATCC1014, without serum): 20 µg/mL | MIC ([2]; +10% serum): 20 µg/mL | MIC ([2]; without serum): 0.2 µg/mL | MIC ([3]; ATCC11621, +10% serum): 20 µg/mL | MIC ([3]; ATCC11621, without serum): 0.5 µg/mL | MIC (Candida Albic. SKF 2270; +10% serum): 20 µg/mL | MIC (Candida Albic. SKF 2270; without serum): 1 µg/mL | MIC ([4]; ATCC2512, +10% serum): 50 µg/mL | MIC ([4]; ATCC2512, without serum): 0.1 µg/mL | MIC [5]: 5 µg/mL | MIC (Trich. Foetus ISM 66/23): 5 µg/mL | LD50 at 336 h [6]: 890 mg/kg

CCCCCCCCCC[N+](CC)(CC)CCOC(=O)C12CC3CC(CC(C3)C1)C2 [Example 5, n-Decyl-diethyl-(1-adamantane-carboxy)-ethyl-ammonium bromide]
MIC (Staph.Aureus Tour; +10% serum): 5 µg/mL | MIC (Staph.Aureus Tour; without serum): < 0.1 µg/mL | MIC (Diplococcus Pneum. ISM; +10% serum): 10 µg/mL | MIC (Diplococcus Pneum. ISM; without serum): 0.5 µg/mL | MIC ([1]; +10% serum): 0.5 µg/mL | MIC ([1]; without serum): < 0.1 µg/mL | MIC (Esch. Coli. SKF 12140; +10% serum): 100 µg/mL | MIC (Esch. Coli. SKF 12140; without serum): 5 µg/mL | MIC (Klens. Pneum. ISM; +10% serum): 100 µg/mL | MIC (Klens. Pneum. ISM; without serum): 10 µg/mL | MIC (Proteus Vulc. ATCC 881; +10% serum): 100 µg/mL | MIC (Proteus Vulc. ATCC 881; without serum): 10 µg/mL | MIC (Pseudom.Aer. ATCC 1014; ATCC1014, +10% serum): 100 µg/mL | MIC (Pseudom.Aer. ATCC 1014; ATCC1014, without serum): 50 µg/mL | MIC ([2]; +10% serum): 10 µg/mL | MIC ([2]; without serum): 0.1 µg/mL | MIC ([3]; ATCC11621, +10% serum): 20 µg/mL | MIC ([3]; ATCC11621, without serum): 0.1 µg/mL | MIC (Candida Albic. SKF 2270; +10% serum): 50 µg/mL | MIC (Candida Albic. SKF 2270; without serum): 0.5 µg/mL | MIC ([4]; ATCC2512, +10% serum): 50 µg/mL | MIC ([4]; ATCC2512, without serum): 0.1 µg/mL | MIC [5]: 10 µg/mL | MIC (Trich. Foetus ISM 66/23): 5 µg/mL | LD50 at 336 h [6]: 750 mg/kg

CCCCCCCCCCC[N+](CC)(CC)CCNC(=O)C12CC3CC(CC(C3)C1)C2 [Example 11, n-Undecyl-diethyl-(1-adamantane-carbonylamido)-ethylammonium bromide]
MIC (Staph.Aureus Tour; +10% serum): 10 µg/mL | MIC (Staph.Aureus Tour; without serum): < 0.1 µg/mL | MIC (Diplococcus Pneum. ISM; +10% serum): 5 µg/mL | MIC (Diplococcus Pneum. ISM; without serum): 1 µg/mL | MIC ([1]; +10% serum): 2 µg/mL | MIC ([1]; without serum): < 0.1 µg/mL | MIC (Esch. Coli. SKF 12140; +10% serum): 100 µg/mL | MIC (Esch. Coli. SKF 12140; without serum): 5 µg/mL | MIC (Klens. Pneum. ISM; +10% serum): 100 µg/mL | MIC (Klens. Pneum. ISM; without serum): 5 µg/mL | MIC (Proteus Vulc. ATCC 881; +10% serum): 100 µg/mL | MIC (Proteus Vulc. ATCC 881; without serum): 10 µg/mL | MIC (Pseudom.Aer. ATCC 1014; ATCC1014, +10% serum): 100 µg/mL | MIC (Pseudom.Aer. ATCC 1014; ATCC1014, without serum): 20 µg/mL | MIC ([2]; +10% serum): 10 µg/mL | MIC ([2]; without serum): 0.1 µg/mL | MIC ([3]; ATCC11621, +10% serum): 20 µg/mL | MIC ([3]; ATCC11621, without serum): 0.2 µg/mL | MIC (Candida Albic. SKF 2270; +10% serum): 20 µg/mL | MIC (Candida Albic. SKF 2270; without serum): 1 µg/mL | MIC ([4]; ATCC2512, +10% serum): 20 µg/mL | MIC ([4]; ATCC2512, without serum): < 0.1 µg/mL | MIC [5]: 5 µg/mL | MIC (Trich. Foetus ISM 66/23): 5 µg/mL | LD50 at 336 h [6]: 935 mg/kg
